From PubChem BioAssay (NCI)
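48-hour exposure; five concentrations; linearly interpolated endpoints. GI50 is the concentration that inhibits growth by half. TGI: total growth inhibition.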

Columns and labels:
Test in all cases: growth of human tumour cells (NCI), 48 h
RPMI-8226 leukemia = system: RPMI-8226 leukemia
HCT-15 colon = system: HCT-15 colon
CCRF-CEM leukemia = system: CCRF-CEM leukemia
SK-OV-3 ovarian = system: SK-OV-3 ovarian
NCI-H226 lung = system: NCI-H226 lung
EKVX NSCLC = system: EKVX NSCLC
HOP-62 NSCLC = system: HOP-62 NSCLC
MOLT-4 leukemia = system: MOLT-4 leukemia
K-562 leukemia = system: K-562 leukemia
OVCAR-5 ovarian = system: OVCAR-5 ovarian

| Compound | GI50 (RPMI-8226 leukemia) [µM] | TGI (RPMI-8226 leukemia) [µM] | GI50 (HCT-15 colon) [µM] | TGI (HCT-15 colon) [µM] | GI50 (CCRF-CEM leukemia) [µM] | TGI (CCRF-CEM leukemia) [µM] | GI50 (SK-OV-3 ovarian) [µM] | TGI (SK-OV-3 ovarian) [µM] | GI50 (NCI-H226 lung) [µM] | TGI (NCI-H226 lung) [µM] | TGI (EKVX NSCLC) [µM] | TGI (HOP-62 NSCLC) [µM] | TGI (MOLT-4 leukemia) [µM] | TGI (K-562 leukemia) [µM] | TGI (OVCAR-5 ovarian) [µM] | GI50 (EKVX NSCLC) [µM] | GI50 (HOP-62 NSCLC) [µM] | GI50 (MOLT-4 leukemia) [µM] | GI50 (K-562 leukemia) [µM] | GI50 (OVCAR-5 ovarian) [µM] |
| --- | --- | --- | --- | --- | --- | --- | --- | --- | --- | --- | --- | --- | --- | --- | --- | --- | --- | --- | --- | --- |
| COc1cc2c3c(n(C4CCNCC4)c(=O)c2cc1OC)-c1cc2c(cc1C3=O)OCO2 | 0.773 | 3.68 | 0.396 | 1.77 | 0.287 | 2.25 | 0.402 | 1.75 | 0.635 | 2.94 | – | – | – | – | – | – | – | – | – | – |
| CC1(C)N=C(N)N=C(N)N1c1cccc(OCc2cccc([N+](=O)[O-])c2)c1 | – | > 100 | – | > 100 | – | > 100 | – | > 100 | – | > 100 | > 100 | > 100 | > 100 | > 100 | > 100 | – | – | – | – | – |
| Nc1nncs1 | – | > 5000 | – | 4920 | – | > 5000 | – | 928 | – | > 5000 | > 5000 | 1700 | > 4900 | > 5000 | > 4450 | – | – | – | – | – |
| O=C(O)C(Br)Cc1ccc2c(c1)OCO2 (stereo not drawn) | – | > 100 | – | > 100 | – | > 100 | – | > 100 | – | – | > 100 | > 100 | > 100 | > 100 | > 100 | – | – | – | – | – |
| CSc1sc(=S)sc1SC | – | > 100 | – | > 100 | – | > 100 | – | > 100 | – | > 100 | > 100 | > 100 | > 100 | > 100 | > 100 | – | – | – | – | – |
| COc1cc2c3c(c4cc(OC)c(OC)cc4c2cc1OC)[C@H](O)[C@@H]1CCCN1C3 | – | 0.44 | – | 5.45 | – | > 100 | – | 1.69 | – | 3.64 | 0.938 | 0.57 | > 100 | > 100 | 0.732 | – | – | – | – | – |
| COc1ccc(/C=C/[N+](=O)[O-])cc1 | – | – | – | 15.2 | – | – | – | – | – | 17.4 | 41 | > 100 | 12.8 | > 100 | 50.8 | – | – | – | – | – |
| O=C(O)CNCc1c2ccccc2[n+]([O-])c2ccccc12 | – | > 100 | – | > 100 | – | > 100 | – | > 100 | – | > 100 | > 100 | > 100 | > 100 | > 100 | > 100 | – | – | – | – | – |
| COC(=O)c1nc2c3c(cccc3c1C(=O)OC)Nc1ccccc1-2 | – | > 100 | – | – | – | > 100 | – | > 100 | – | > 100 | > 100 | 71.7 | > 100 | > 100 | > 100 | – | – | – | – | – |
| COc1ccc(/C(Cl)=C(\C=O)c2ccc(Cl)c(Cl)c2)cc1OC | – | 5.5 | – | 20.7 | – | 8.72 | – | 75.4 | – | 18.6 | 30.6 | 31.7 | 5.76 | > 100 | – | – | – | – | – | – |
| C#C[C@@]1(O)[C@@H](CO)O[C@@H](n2cc(F)c3c(N)ncnc32)[C@@H]1O | 0.221 | 1.98 | 0.297 | 3.19 | 0.338 | > 100 | 0.285 | 2.09 | 0.521 | 2.63 | 11.3 | 7.79 | > 100 | > 100 | > 100 | 0.675 | 0.571 | 0.304 | 0.285 | 1.78 |
| S=C1NN=C2C(=C3CCCC4C5CCCCC5N2C34)N1 (stereo not drawn) | – | > 100 | – | > 100 | – | > 100 | – | > 100 | – | > 100 | – | > 100 | > 100 | > 100 | > 100 | – | – | – | – | – |
| C[C@H](CCC1=NCCN1)[C@H]1CC[C@H]2[C@@H]3CC[C@@H]4C[C@H](O)CC[C@]4(C)[C@H]3CC[C@]12C | – | 13.4 | – | > 50.2 | – | 14.2 | – | 45.3 | – | 28.2 | 30.1 | 20.9 | 8.79 | > 21.8 | 34.7 | – | – | – | – | – |
| O=C(O)Cc1[nH]cnc1C(=O)O | – | > 100 | – | > 100 | – | > 100 | – | > 100 | – | > 100 | > 100 | > 100 | > 100 | > 100 | > 100 | – | – | – | – | – |
